In patent US20110105408A1, “THERAPEUTIC PEPTIDES” (INTER-K PTY LIMITED, priority 2008, published 2011):
pIC50: −log10 of the molar value. No end group written: not given here.

How the values were obtained:
HT29 colon cancer cells [1] = test: Cell proliferation (MTT) assay, HT29 cells; assay type: cell-based, human; settings: for inhibition of proliferation of HT29 cells (MTT): 48 hours culture with dendrimer
Protocol: Single cell suspensions of viable trypsinised cells were seeded into 96-well tissue culture plates at a density of 2×10^3 cells per well in a volume of 100 μl of a suitable culture media with foetal calf serum (FCS) (e.g., Dulbecco's Modified Eagles Medium (DMEM), with 10% v/v FCS, glutamine, Hepes, and antibiotics). A set of triplicate wells was prepared for each concentration of the peptide dendrimer being tested. Additional sample wells containing untreated cells or media alone were set up in each treatment plate and processed in parallel as reference controls. A zero-time plate of untreated cells and media-alone wells was simultaneously prepared and an MTT assay carried out on this plate at the time of test peptide dendrimer addition to treatment plates. All plates were cultured for 24 hours before addition of the test dendrimer. To prepare the MTT solution 100 mg of MTT (3-(4,5-dimethylthiazolyl-2)-2,5-diphenyltetrazolium bromide) (Cat #. M-128, Sigma, St Louis Mo.), is mixed with 20 ml of PBS at pH 7.4. The resulting solution is filter sterilized (0.2 μM syringe filter) and stored at 4° C. protected from light until use. MTT substrate is cleaved in growing cells to yield a water insoluble salt. After solubilisation of the salt crystals, a coloured product is produced the measurement of which allows quantitation of the proliferative activity of the cultured cells.
Appropriate concentrations of the test dendrimer were prepared by dilution of freshly prepared sterile 1 mM stock solutions into cell culture media to give a final well volume of 200 μl containing 10% v/v FCS. The zero-plate was processed by addition of MTT at this time. Cell culture was continued for a further 24 or 48 hours before addition of 20 μl of MTT in PBS (5 mg/ml, 0.2 um filter sterilised). The MTT cell proliferation assay measures cell proliferation rate and, in instances where cell viability is compromised, the assay indicates a comparative reduction in cell viability. After a 3 hour incubation in the presence of MTT (5% CO2 in air at 37° C.), plates were centifuged at 450 g for 5 minutes, supernatant removed by gentle suction and precipitated tetrazolium salt resuspended into 150 μl DMSO:glycine (0.1 M glycine, 0.1 M NaCl pH 10.5) (6:1 v/v) solution. Plates were gently vortexed to complete solubilisation of crystalline material and absorbance was read at 540-550 nm using a microplate reader. Sample data were processed to determine the comparative growth of treated samples relative to untreated controls.
HT29 cells were cultured for 48 hours in the presence of selected dendrimers and proliferation of the cells was assessed by MTT assay essentially as described in Example 1.2. The results were calculated as percentage proliferation of control cells (not treated with dendrimer).

HT29 colon cancer cells [2] = test: Cell proliferation (MTT) assay, HT29 cells; assay type: cell-based, human; settings: 24 hour incubation period

Substance | inhibition of proliferation of HT29 cells (MTT) (HT29 colon cancer cells [1]) | pIC50 (HT29 colon cancer cells [1]; 48 hours, MTT) | dendrimer concentration required for total kill (HT29 colon cancer cells [1]; HT29 cells, 48 hours, MTT) [µM] | inhibition of proliferation of HT29 colon cancer cells (MTT) (HT29 colon cancer cells [2])
dendrimer presenting 12 monomer units of the peptide RSKAKNPLYR (SEQ ID No. 6) (also: dendrimer of 12 peptide copies) [Dend 12 10(4)] | more effective than Dend 9 | 6.00 | 10 | 
Dend8 β3: peptide dendrimer presenting 8 monomer units of the β3 based peptide RARAKNPLYK (SEQ ID No. 7) (also: dendrimer of 8 peptide copies) | inhibited proliferation of the HT29 cancer cells |  |  | 
Dend 4: peptide dendrimer comprising 4 monomer units of the polypeptide RSKAKNPLYR (SEQ ID No. 6) (also: dendrimer of 4 peptide copies) |  |  |  | inhibit proliferation of HT29 colon cancer cells
